Assay results published in US11510886B2, “Metformin amino acid compounds and methods of using the same” (Laboratorios Silancs S.A. DE C.V., priority 2016, dated 2022).
Entries after “also recorded” stand apart in the source; their conditions may differ. Structures can show the parent of a compound that is named as a salt. Where two headings read alike, the source gives them in different places.

Key:
GLUT4 = experiment: GLUT4-GFP transport to plasma membrane in NIH-3T3-L1 adipocytes; type: cell-based, Mice; details: confocal microscopy (FIG. 75)
Experimental: FIG. 75. […] NIH-3T3-L1 cells were transfected with a construction expressing GLUT4 fused with Green Fluorescent Protein-GFP (Addgene). Transfected cells were selected by flow cytometry, taking advantage of GFP fluorescence, and cultured in DMEM supplemented with 10% FBS. […] Images were analyzed with the WCIF ImageJ software to detect colocalization of GPBP (red) with GLUT4 (green). […].

[1] = tested on: rat model of streptozotocin-induced diabetes; experiment: Blood glucose levels in rat model of streptozotocin-induced diabetes, 14 days oral; details: mean ± SD; for Blood glucose levels before TI/RI administration, Day −3 (before STZ administration): rats, baseline before STZ and before first TI/RI administration
[2] = tested on: RAW264.7 macrophages and L1 adipocytes co-cultures; experiment: Cytometric analysis of RAW + L1 co-cultures; type: cell-based, Mice; details: for EVENTS, F4/80^+CD86^− (first line) / %, F4/80^+CD86^− (second line) / EVENTS, F4/80^+CD86^− (second line) / %, F4/80^+CD86^− (first line) / %, F4/80^+: 10 mM, 24 hours; for %, F4/80^+CD86^− (second line): M1 macrophage percentage of total macrophages; for EVENTS, F4/80^+CD86^− (second line): M1 macrophages; for %, F4/80^+CD86^− (first line): of total macrophages; for %, F4/80^+: total macrophages; for reduction of the proportion of macrophages in M1: co-cultures
Excerpt: One of the key pathogenic events in hyperglycemia of obese patients is the emergence of a pathogenic feedback between adipose tissue and macrophages of the immune system, in which adipocytes attract macrophages, polarizing them to pro-inflammatory phenotypes, and polarized macrophages secrete cytokines, promoting resistance to adipocyte insulin (Johnson A M, Olefsky J M. Cell. 2013; 152:673-84). To reproduce this pathogenic dialogue ex vivo and investigate the activity of SLNs compounds thereon, cytometric techniques allowing the discrimination between these cell lines and determination of phenotypic changes in macrophages in response to individual compounds (Table 18) were used.
RAW264.7 macrophages were added to adipocyte cultures, and the co-culture was maintained in DMEM supplemented with 10% FBS and antibiotics for 8 hours. […]. Next, cells were washed with PBS and collected by mechanical methods (without trypsin) to prevent protein loss from the cell surface. Cells were then blocked (FcBlock, BD Pharmingen) for 15 minutes at 4° C., and incubated for 20-30 minutes at 4° C. in darkness with anti-mouse F4/80 (eBioscience), conjugated with PerCP-Cy5.5, to mark macrophages, and anti-mouse CD86 (BioLegend), conjugated with PE-Cy7.7, to mark macrophages M1 specifically. Afterwards, cells were washed three times with PBS and centrifuged (500×g, 10 minutes, 4° C.), after which they were analyzed with a cytometer (FACSVerse, BD). In Table 6, the M1 macrophage percentage of the total macrophages analyzed (burgundy) for each treatment is highlighted in yellow.

LKB1 and GPBP = LKB1 and GPBP distribution in C2C12 myotubes (confocal microscopy); type: cell-based, Mice; details: 10 mM, 3 hours (FIG. 71)
Experimental: FIG. 71. […] C2C12 cells were differentiated to myotubes for 5 days by incubation in DMEM medium, supplemented with 2% horse serum; […]. Cells were washed with PBS (3×5 minutes) and incubated with antibodies against mouse IgG, conjugated with Alexa Fluor 488, and against goat IgG, conjugated with Alexa Fluor 546 (Molecular Probes) for 1 hour at RM in the dark. In this and in the following Figures showing confocal microscopy of cell cultures, all antibodies used were diluted in blocking solution. After incubation with antibodies, cells were washed with PBS (3×5 minutes) and mounting medium (Dako) in glass slides. Preparations were visualized with confocal microscopy and obtained images were analyzed with the WCIF ImageJ software as to detect colocalization points between GPBP and LKB1. GPBP appears in green, LKB1 in red, and colocalization points indicating similar and corresponding expression levels in both proteins appear in white.

[3] = target: T1, GPBP, LKB1/STRADα/MO25, AMPK, AS160 (Homo sapiens, UniProt Q9Y5P4); experiment: In vitro phosphorylation of GPBP with LKB1 complex, AMPK and AS160
T1 sequence (Q9Y5P4 1-624): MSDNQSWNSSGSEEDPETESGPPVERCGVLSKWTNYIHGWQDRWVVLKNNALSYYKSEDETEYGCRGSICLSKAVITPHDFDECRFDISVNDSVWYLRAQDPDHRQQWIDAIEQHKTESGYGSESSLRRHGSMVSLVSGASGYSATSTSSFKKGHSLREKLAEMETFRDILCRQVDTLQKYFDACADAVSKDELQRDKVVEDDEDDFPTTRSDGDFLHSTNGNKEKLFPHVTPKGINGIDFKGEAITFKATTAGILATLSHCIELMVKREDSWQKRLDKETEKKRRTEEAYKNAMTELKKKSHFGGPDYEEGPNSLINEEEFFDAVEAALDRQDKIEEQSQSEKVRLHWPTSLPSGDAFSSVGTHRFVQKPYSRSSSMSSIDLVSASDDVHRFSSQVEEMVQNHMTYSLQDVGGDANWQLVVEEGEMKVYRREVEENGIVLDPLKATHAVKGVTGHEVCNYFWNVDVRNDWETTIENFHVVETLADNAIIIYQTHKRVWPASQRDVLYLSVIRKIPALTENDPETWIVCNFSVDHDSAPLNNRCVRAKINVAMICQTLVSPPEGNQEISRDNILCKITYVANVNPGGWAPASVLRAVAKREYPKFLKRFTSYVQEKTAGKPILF

blood glucose level = experiment: Effect of metformin compounds on the glucokinetic profile after oral glucose overload; type: in vivo, Rat; details: rat, 750 mg/kg referred to metformin base, mean ± SD; for Blood glucose level, 0.25 h post-glucose overload / Blood glucose level, 1 h post-glucose overload / Blood glucose level, 4 h post-glucose overload / Blood glucose level, pre-glucose overload: *p<0.05 vs vehicle; for Blood glucose level, 3 h post-glucose overload: *p<0.05, **p<0.01 vs vehicle
GPBP and VAPA = experiment: Colocalization of GPBP with VAPA in C2C12 cells; type: cell-based, Mice; details: C2C12, 10 mM, 16 hours; p=0.0093 Control vs. SLN1, p=0.0001 Control vs. SLN10, p=0.0283 SLN10 vs SLN1
Experimental: FIG. 74A. […] In FIG. 74A, C2C12 cells were differentiated for 3 days in DMEM supplemented with 2% horse serum. […] Subsequently, cells were washed with PBS (3×5 minutes) and incubated with mouse secondary anti-IgG antibodies, conjugated with Alexa Fluor 488, and goat anti-IgG antibodies, conjugated with TRITC (Molecular Probes) for 1 hour at RM in the dark; then, cells were washed again with PBS (3×5 minutes) and mounted for confocal microscopy observation. Afterwards, the images obtained were analyzed with the WCIF ImageJ software to quantify colocalization quotient between GPBP and VAPA. In the third column, the points at which there are similar expression levels of both GPBP and VAPA appear in white.

Row | Compound | distribution of GPBP and GLUT4 in L1 adipocytes (GLUT4) | Blood glucose levels before TI/RI administration, Day −3 (before STZ administration) [1] | EVENTS, F4/80^+CD86^− (first line) [2] | %, F4/80^+CD86^− (second line) [2] | EVENTS, F4/80^+CD86^− (second line) [2] | %, F4/80^+CD86^− (first line) [2] | %, F4/80^+ [2] | reduction of the proportion of macrophages in M1 [2] | Blood glucose level, 0.25 h post-glucose overload (blood glucose level) | Blood glucose level, 0.5 h post-glucose overload (blood glucose level) | Blood glucose level, 1 h post-glucose overload (blood glucose level) | Blood glucose level, 2 h post-glucose overload (blood glucose level) | Blood glucose level, 3 h post-glucose overload (blood glucose level) | Blood glucose level, 4 h post-glucose overload (blood glucose level) | Blood glucose level, 6 h post-glucose overload (blood glucose level) | Blood glucose level, pre-glucose overload (blood glucose level) | colocalization of GPBP with VAPA (GPBP and VAPA) | other results
1 | metformin lysinate | widely located in the plasma membrane | 114.00 ± 6.93 mg/dL | 566 | 62.96% | 962 | 37.04% | 100.00% | strongest effect | 108.33 ± 14.57 mg/dL | 101.00 ± 15.13 mg/dL | 106.00 ± 15.72 mg/dL | 94.00 ± 19.47 mg/dL | 84.67 ± 7.09 mg/dL | 89.00 ± 5.29 mg/dL | 98.33 ± 9.07 mg/dL | 93.33 ± 22.48 mg/dL | reduced significantly; also recorded: more intensely than SLN1 | Blood glucose levels before TI/RI administration, Day −1 ([1]; STZ-diabetic rats, before first TI/RI administration, n.d. = all values beyond ULOD of glucometer (600 mg/dl), § n=1, ¢ n=2): 577.00^§ ± n.d.^§ mg/dL; distribution of LKB1-GPBP aggregates (LKB1 and GPBP; listed as SLN10): seems to induce decolocalization in GPBP and LKB1; also recorded: delocalization of LKB1 and virtual absence of kinase in granular aggregates; blood glucose level of animal ID93 (750 mg/kg, fifth day, six hours after the glucose overload): 16 mg/dL; Body weight (g) On administration day (Groups B-K, 250 mg/kg, Mean ± SD): 189.83 ± 11.17 g; Body weight (g) On distribution day (Groups B-K, 250 mg/kg, before dosing, Mean ± SD): 184.42 ± 11.94 g; Body weight (g) On distribution day (Groups L-U, 750 mg/kg, before dosing, Mean ± SD): 186.73 ± 8.05 g; Body weight (g) On first administration day (Groups L-U, 750 mg/kg, first column of this head, Mean ± SD): 203.38 ± 13.38 g; Body weight (g) On first administration day (Groups L-U, 750 mg/kg, second column of this head, Mean ± SD): 192.83 ± 9.65 g; mortality and clinical signs (glucokinetic groups, 750 mg/kg for five days, 750 mg/kg): hypothermia, lack of activity and tear excess; mortality and clinical signs (glucokinetic groups, 750 mg/kg for five days, listed as metformin lysinate, 750 mg/kg): severe hypoglycemia; mortality and clinical signs (pharmacokinetic assay, single 250 mg/kg): respiratory noises; GPBP autophosphorylation in presence of LKB1 mix, AMPK and AS160 ([3]; FIG. 73, listed as SLN10): inhibit it increasingly; also recorded: inhibited it progressively; incorporation of phosphate by LKB1/STRADα ([3]; GPBP present in the reaction mixture): inhibited the incorporation of phosphate by LKB1/STRADα efficiently
2 | CN(C)C(=N)N=C(N)N [Metformin hydrochloride, metformin hydrochloride, reference compound] | low presence in secretory vesicles | 120.00 ± 8.72 mg/dL | 551 | 65.76% | 1,058 | 34.24% | 100.00% | lowest activity | 93.75 ± 15.78 mg/dL | 89.50 ± 9.98 mg/dL | 88.25 ± 10.63 mg/dL | 74.00 ± 10.58 mg/dL | 85.75 ± 7.37 mg/dL | 83.75 ± 7.23 mg/dL | 89.00 ± 11.80 mg/dL | 77.00 ± 8.08 mg/dL | reduced significantly | distribution of LKB1-GPBP aggregates (LKB1 and GPBP): moved LKB1-GPBP aggregates from peripheral positions to areas around the nuclei; Body weight (g) On administration day (rat, in vivo, 250 mg/kg): 190.39 ± 9.88 g; Body weight (g) On distribution day (rat, in vivo, 250 mg/kg): 186.93 ± 10.39 g; Body weight (g) On distribution day (rat, in vivo, 750 mg/kg): 189.03 ± 15.13 g; GPBP autophosphorylation in presence of LKB1 mix, AMPK and AS160 [3]: activates GPBP phosphorylation; also recorded: stimulated GPBP autophosphorylation
